# Assay results published in PubChem BioAssay AID248 (DTP/NCI, 2004).
# Where “and” joins values, the source holds several entries; their conditions need not be identical. Equal values may be shown once. Toxic doses and inconclusive results are not listed.
# Test system: L1210 leukemia ip in BDF1 mice, survival T/C
# Assay: NCI In Vivo Anticancer Drug Screen. Data for tumor model L1210 Leukemia (intraperitoneal) in B6D2F1 (BDF1) mice
# Conditions: endpoint: mean survival time, higher = longer survival
# How it was run: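 Value reflects the ratio of survival in compound-treated mice to survival in vehicle-treated controls, with both groups carrying the same transplanted tumor.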
# [1] = dose: 100.0 mg/kg/injection, schedule: Q01DX001 (ip), vehicle: saline
# [2] = dose: 200.0 mg/kg/injection, schedule: Q01DX001 (ip), vehicle: saline
# [3] = dose: 400.0 mg/kg/injection, schedule: Q01DX001 (ip), vehicle: saline
# [4] = dose: 100.0 mg/kg/injection, schedule: Q01DX009 (ip), vehicle: saline
# [5] = dose: 100.0 mg/kg/injection, schedule: Q04DX003 (ip), vehicle: saline with Tween-80
# [6] = dose: 100.0 mg/kg/injection, schedule: Q04DX003 (ip), vehicle: saline
# [7] = dose: 200.0 mg/kg/injection, schedule: Q01DX009 (ip), vehicle: saline
# [8] = dose: 200.0 mg/kg/injection, schedule: Q04DX003 (ip), vehicle: saline with Tween-80
# [9] = dose: 200.0 mg/kg/injection, schedule: Q04DX003 (ip), vehicle: saline
# [10] = dose: 400.0 mg/kg/injection, schedule: Q01DX009 (ip), vehicle: saline
# [11] = dose: 400.0 mg/kg/injection, schedule: Q04DX003 (ip), vehicle: saline with Tween-80
# [12] = dose: 400.0 mg/kg/injection, schedule: Q04DX003 (ip), vehicle: saline
# [13] = dose: 100.0 mg/kg/injection, schedule: Q01DX009 (ip), vehicle: saline with Tween-80
# [14] = dose: 100.0 mg/kg/injection, schedule: Q04DX003 (ip), vehicle: Klucel (hydroxypropylcellulose) (HPC)
# [15] = dose: 200.0 mg/kg/injection, schedule: Q01DX009 (ip), vehicle: saline with Tween-80
# [16] = dose: 200.0 mg/kg/injection, schedule: Q04DX003 (ip), vehicle: Klucel (hydroxypropylcellulose) (HPC)
# [17] = dose: 400.0 mg/kg/injection, schedule: Q01DX009 (ip), vehicle: saline with Tween-80
# [18] = dose: 400.0 mg/kg/injection, schedule: Q04DX003 (ip), vehicle: Klucel (hydroxypropylcellulose) (HPC)
structure (smiles),measurement,setting,value
CNC(=S)NC1CC(OC2CC(O)(C(C)=O)Cc3c(O)c4c(c(O)c32)C(=O)c2c(OC)cccc2C4=O)OC(C)C1O (centres undefined),T/C,"dose: 2.0 mg/kg/injection, schedule: Q04DX003 (ip), vehicle: water",107 % of control
same,T/C,"dose: 3.12 mg/kg/injection, schedule: Q01DX009 (ip), vehicle: saline with Tween-80",115 % of control
same,T/C,"dose: 4.0 mg/kg/injection, schedule: Q04DX003 (ip), vehicle: water",106 % of control
same,T/C,"dose: 6.25 mg/kg/injection, schedule: Q01DX009 (ip), vehicle: saline with Tween-80",120 % of control
same,T/C,"dose: 8.0 mg/kg/injection, schedule: Q04DX003 (ip), vehicle: water",107 % of control
same,T/C,"dose: 12.5 mg/kg/injection, schedule: Q04DX003 (ip), vehicle: saline with Tween-80",108 % of control
same,T/C,"dose: 16.0 mg/kg/injection, schedule: Q04DX003 (ip), vehicle: water",109 % of control and 110 % of control
same,T/C,"dose: 25.0 mg/kg/injection, schedule: Q04DX003 (ip), vehicle: saline with Tween-80",124 % of control
same,T/C,"dose: 32.0 mg/kg/injection, schedule: Q04DX003 (ip), vehicle: water",116 % of control
same,T/C,"dose: 50.0 mg/kg/injection, schedule: Q04DX003 (ip), vehicle: saline with Tween-80",121 % of control
same,T/C,"dose: 64.0 mg/kg/injection, schedule: Q04DX003 (ip), vehicle: water",110 % of control
same,T/C,"dose: 125.0 micrograms/kg/injection, schedule: Q04DX003 (ip), vehicle: water",96 % of control
same,T/C,"dose: 250.0 micrograms/kg/injection, schedule: Q04DX003 (ip), vehicle: water",103 % of control
same,T/C,"dose: 500.0 micrograms/kg/injection, schedule: Q04DX003 (ip), vehicle: water",102 % of control
same,T/C,"dose: 1000.0 micrograms/kg/injection, schedule: Q04DX003 (ip), vehicle: water",103 % of control
same,T/C,"dose: 2000.0 micrograms/kg/injection, schedule: Q04DX003 (ip), vehicle: water",98 % of control
Cc1cn([C@@H]2C[C@H](CO)[C@@H](O)C2)c(=O)[nH]c1=O,T/C,[1],105 % of control
same,T/C,[2],110 % of control
same,T/C,[3],107 % of control
CC1(C)OCC(C2OC(C)(C)OC2C(CO)Nc2ccc([N+](=O)[O-])cc2[N+](=O)[O-])O1 (centres undefined),T/C,[1],98 % of control
same,T/C,[2],93 % of control
same,T/C,[3],93 % of control
O=C(Nc1ccc(CCC2=NCCN2)cc1)c1ccc(C(=O)Nc2ccc(CCC3=NCCN3)cc2)cc1,T/C,"dose: 30.0 mg/kg/injection, schedule: Q01DX Z (oral), vehicle: saline",101 % of control
same,T/C,"dose: 60.0 mg/kg/injection, schedule: Q01DX Z (oral), vehicle: saline",103 % of control
same,T/C,"dose: 120.0 mg/kg/injection, schedule: Q01DX Z (oral), vehicle: saline",106 % of control
same,T/C,"dose: 240.0 mg/kg/injection, schedule: Q01DX Z (oral), vehicle: saline",97 % of control
COC(=O)c1ccc(OC(C)OCCCl)cc1 (centres undefined),T/C,"dose: 100.0 mg/kg/injection, schedule: Q04DX002 (ip), vehicle: saline",93 % of control
same,T/C,"dose: 200.0 mg/kg/injection, schedule: Q04DX002 (ip), vehicle: saline",96 % of control
same,T/C,"dose: 400.0 mg/kg/injection, schedule: Q04DX002 (ip), vehicle: saline",96 % of control
O=S(=O)(c1ccc(Cl)cc1)c1ccc(Cl)cc1,T/C,[4],91 % of control
same,T/C,[5],102 % of control
same,T/C,[6],104 % of control
same,T/C,[7],95 % of control
same,T/C,[8],107 % of control
same,T/C,[9],95 % of control
same,T/C,[10],93 % of control
same,T/C,[11],95 % of control
same,T/C,[12],106 % of control
c1ccc(-c2nc(-c3ccccn3)nc(-c3ccccn3)n2)nc1,T/C,"dose: 5.0 mg/kg/injection, schedule: Q01DX001 (ip), vehicle: saline",107 % of control
same,T/C,"dose: 10.0 mg/kg/injection, schedule: Q01DX001 (ip), vehicle: saline",96 % of control
same,T/C,"dose: 20.0 mg/kg/injection, schedule: Q01DX001 (ip), vehicle: saline",100 % of control
same,T/C,"dose: 40.0 mg/kg/injection, schedule: Q01DX001 (ip), vehicle: saline",93 % of control
same,T/C,"dose: 80.0 mg/kg/injection, schedule: Q01DX001 (ip), vehicle: saline",91 % of control
O=S(=O)(CCl)Nc1ccccn1,T/C,"dose: 100.0 mg/kg/injection, schedule: Q01DX009 (ip), vehicle: other",96 % of control
same,T/C,"dose: 100.0 mg/kg/injection, schedule: Q04DX003 (ip), vehicle: other",106 % of control
same,T/C,"dose: 200.0 mg/kg/injection, schedule: Q01DX009 (ip), vehicle: other",103 % of control
same,T/C,"dose: 200.0 mg/kg/injection, schedule: Q04DX003 (ip), vehicle: other",108 % of control
same,T/C,"dose: 400.0 mg/kg/injection, schedule: Q01DX009 (ip), vehicle: other",102 % of control
same,T/C,"dose: 400.0 mg/kg/injection, schedule: Q04DX003 (ip), vehicle: other",100 % of control
O=NN(CCF)C(=O)NC1CS(=O)(=O)CS(=O)(=O)C1,T/C,"dose: 6.25 mg/kg/injection, schedule: Q01DX001 (ip), vehicle: other",164 % of control
same,T/C,"dose: 12.5 mg/kg/injection, schedule: Q01DX001 (ip), vehicle: other",204 % of control
same,T/C,"dose: 25.0 mg/kg/injection, schedule: Q01DX001 (ip), vehicle: other",255 % of control
same,T/C,"dose: 50.0 mg/kg/injection, schedule: Q01DX001 (ip), vehicle: other",262 % of control
same,T/C,"dose: 75.0 mg/kg/injection, schedule: Q01DX001 (ip), vehicle: other",296 % of control
same,T/C,"dose: 100.0 mg/kg/injection, schedule: Q01DX001 (ip), vehicle: other",205 % of control
CCOC(=O)CCN1CCCCCC1,T/C,[4],104 % of control
same,T/C,[6],92 % of control
same,T/C,[7],104 % of control
same,T/C,[9],98 % of control
same,T/C,[10],101 % of control
same,T/C,[12],102 % of control
C(Cc1ccccc1)=C1SCCCS1,T/C,[5],99 % of control
same,T/C,[8],96 % of control
same,T/C,[11],96 % of control
CCCCC1(C)CCC(=O)O1 (centres undefined),T/C,"dose: 66.0 mg/kg/injection, schedule: Q01DX001 (ip), vehicle: Klucel (hydroxypropylcellulose) (HPC)",101 % of control
same,T/C,"dose: 100.0 mg/kg/injection, schedule: Q01DX001 (ip), vehicle: Klucel (hydroxypropylcellulose) (HPC)",95 % of control
same,T/C,"dose: 150.0 mg/kg/injection, schedule: Q01DX001 (ip), vehicle: Klucel (hydroxypropylcellulose) (HPC)",96 % of control
same,T/C,[2],113 % of control
same,T/C,[3],91 % of control
CCOc1ccc(NP(=O)(Oc2c(F)c(F)c(F)c(F)c2F)N(CCCl)CCCl)cc1 (centres undefined),T/C,"dose: 62.5 mg/kg/injection, schedule: Q01DX001 (ip), vehicle: other",95 % of control
same,T/C,"dose: 125.0 mg/kg/injection, schedule: Q01DX001 (ip), vehicle: other",90 % of control
same,T/C,"dose: 250.0 mg/kg/injection, schedule: Q01DX001 (ip), vehicle: other",89 % of control
same,T/C,"dose: 500.0 mg/kg/injection, schedule: Q01DX001 (ip), vehicle: other",87 % of control
COC(=O)CCCCCC(O)C1CCC2OC(=O)CC21C (centres undefined),T/C,[13],95 % of control
same,T/C,[14],94 % of control
same,T/C,[15],95 % of control
same,T/C,[16],100 % of control
same,T/C,[17],91 % of control
same,T/C,[18],93 % of control
F[Si](c1cccc2ccccc12)(c1cccc2ccccc12)c1cccc2ccccc12,T/C,[13],93 % of control
same,T/C,[5],92 % of control
same,T/C,[15],87 % of control
same,T/C,[8],90 % of control
same,T/C,[17],103 % of control
same,T/C,[11],97 % of control
Cc1cc(O)ccc1CCC#N,T/C,[4],96 % of control and 91 % of control
same,T/C,"dose: 100.0 mg/kg/injection, schedule: Q04DX002 (ip), vehicle: saline with Tween-80",95 % of control and 101 % of control
same,T/C,[7],104 % of control and 115 % of control
same,T/C,"dose: 200.0 mg/kg/injection, schedule: Q04DX002 (ip), vehicle: saline with Tween-80",95 % of control and 96 % of control
same,T/C,[10],96 % of control and 89 % of control
same,T/C,"dose: 400.0 mg/kg/injection, schedule: Q04DX002 (ip), vehicle: saline with Tween-80",95 % of control and 101 % of control
O=[N+]([O-])c1cccc(S(=O)(=O)NNc2cccc(Cl)c2)c1,T/C,[14],94 % of control
same,T/C,[16],94 % of control
same,T/C,[18],98 % of control
